Experimental data reported in US20050288264A2, “Dosage Regimen and Pharmaceutical Composition for Emergency Contraception” (priority 2001, published 2005).
Where two headings read alike, the source gives them in different places.

Type: in vivo, women
Protocol: The efficacy of the regimen according to this invention was compared with the known regimen administering 0.75-0.75 mg of levonorgestrel 12 hours apart in the following trials.
In a double-blind, randomized, multicentre, multinational trial 1,356 women received 0.75-0.75 mg of levonorgestrel at 12-hour interval in the traditional way, while 1,356 received in a single dose 1.5 ± 0.2 mg of levonorgestrel within 72 hours of the unprotected coitus.
The incidence of vomiting was 1.4% in both groups. As the new regimen also has the advantageous properties resulting from the lack of the estrogen component, the incidence of nausea, feeling of sickness, vomiting was apparently low.
The incidence of menstrual disorders was not increased either by the single administration of 1.5 mg dose of levonorgestrel compared to the administration of two 0.75 mg doses. The incidence of menstrual disorders was 30.9% in both groups.

SMILES: C#C[C@]1(O)CC[C@H]2[C@@H]3CCC4=CC(=O)CC[C@@H]4[C@H]3CC[C@@]21CC [levonorgestrel]
- Prevented fraction (percent of conception which otherwise might happen prevented by the treatment) (0.75-0.75 mg at 12-hour interval (traditional way)): 77.3%
- conception rate (0.75-0.75 mg at 12-hour interval (traditional way), within 72 hours of unprotected coitus, 1,356 women): 1.77%
- incidence of other side-effects (diarrhoea, fatigue, dizziness, headache, breast tenderness, lower abdominal pain) (in vivo): not differing significantly
- Prevented fraction (percent of conception which otherwise might happen prevented by the treatment) (single dose 1.5 ± 0.2 mg): 81.9%
- conception rate (single dose 1.5 ± 0.2 mg within 72 hours of unprotected coitus, 1,356 women): 1.47%
